Calls of active or inactive are those of the source. The rule behind the calls is not given here.
Each compound was assayed against T1, Androgen receptor (Rattus norvegicus) (UniProt P15207) (assay: Inhibition of rat AR-mediated reporter gene expression in COS7 cells at 10 uM). Settings: COS-7.
T1 sequence (whole entry): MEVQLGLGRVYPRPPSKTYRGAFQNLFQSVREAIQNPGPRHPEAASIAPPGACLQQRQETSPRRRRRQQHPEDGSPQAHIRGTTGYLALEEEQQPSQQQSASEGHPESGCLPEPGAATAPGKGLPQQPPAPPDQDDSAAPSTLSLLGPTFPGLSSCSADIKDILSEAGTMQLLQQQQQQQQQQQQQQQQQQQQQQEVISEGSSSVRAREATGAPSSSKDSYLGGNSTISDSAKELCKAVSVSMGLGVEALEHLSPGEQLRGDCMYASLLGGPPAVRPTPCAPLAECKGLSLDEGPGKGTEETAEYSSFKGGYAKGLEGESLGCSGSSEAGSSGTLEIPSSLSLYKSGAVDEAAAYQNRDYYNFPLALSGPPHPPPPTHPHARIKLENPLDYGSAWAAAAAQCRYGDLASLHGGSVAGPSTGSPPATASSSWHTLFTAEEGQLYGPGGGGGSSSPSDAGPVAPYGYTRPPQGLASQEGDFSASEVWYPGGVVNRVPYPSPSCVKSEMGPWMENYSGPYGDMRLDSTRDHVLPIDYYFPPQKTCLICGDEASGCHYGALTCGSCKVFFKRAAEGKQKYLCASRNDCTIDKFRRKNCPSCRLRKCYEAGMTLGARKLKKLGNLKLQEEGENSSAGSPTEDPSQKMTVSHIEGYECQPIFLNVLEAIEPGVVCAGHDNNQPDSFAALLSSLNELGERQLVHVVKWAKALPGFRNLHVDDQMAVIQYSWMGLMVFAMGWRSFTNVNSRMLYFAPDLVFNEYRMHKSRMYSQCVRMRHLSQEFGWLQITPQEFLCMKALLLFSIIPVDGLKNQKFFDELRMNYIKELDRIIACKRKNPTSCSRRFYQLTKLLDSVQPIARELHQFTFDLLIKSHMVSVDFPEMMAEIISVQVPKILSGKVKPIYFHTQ
Type: cell-based

**Q.** For `Cn1c2c(c3cc(F)ccc31)CSc1cc(F)ccc1-2`, which inhibition is on record?
**A.** 48%

Each compound was assayed against T1, Androgen receptor (Rattus norvegicus) (assay: Inhibition of rat AR-mediated reporter gene expression in COS7 cells). Settings: COS-7.

**Q.** For `CN1C(=O)CCC2(C)c3c(c4cc(O)ccc4n3C)CCC12` (configuration not stated), which Activity is on record?
**A.** inactive

**Q.** `Cn1c2c(c3cc(O)ccc31)CS(=O)(=O)c1ccccc1-2` was tested. Which Activity did it give?
**A.** inactive

**Q.** With `CN1c2ccc(O)cc2C(=O)C2CCc3ccccc3C21` (configuration not stated) as the compound, how does the Activity read?
**A.** inactive

**Q.** `Cn1c2c(c3cc(O)ccc31)C[S+]([O-])c1ccccc1-2` (configuration not stated) was tested. Which Activity did it give?
**A.** inactive

**Q.** `CN(C)CCn1c2c(c3cc(O)ccc31)CSc1ccccc1-2` was tested. Which Activity did it give?
**A.** inactive

**Q.** How did the Activity turn out when `Cc1ccc2c(c1)c1c(n2C)-c2ccccc2SC1` was run?
**A.** inactive

**Q.** `Cn1c2c(c3ccc(O)cc31)CCC1=CC(=O)CCC12C` (configuration not stated) was tested. Which Activity did it give?
**A.** inactive

**Q.** Which Activity does the source give for `Cn1c2c(c3ccc(O)cc31)SCc1ccccc1-2` here?
**A.** inactive

**Q.** Which Activity does the source give for `Cn1c2c(c3cc(Br)ccc31)CSc1ccccc1-2` here?
**A.** inactive

**Q.** For `Oc1ccc2nc3c(c(O)c2c1)CCc1ccccc1-3`, which Activity is on record?
**A.** inactive

**Q.** With `CN1Cc2c(n(C)c3cc(O)ccc23)-c2ccccc21` as the compound, how does the Activity read?
**A.** inactive

**Q.** `COc1ccc2c(c1)c1c(n2C)-c2ccccc2SC1` was tested. Which Activity did it give?
**A.** inactive

**Q.** For `Cn1c2c(c3cc(C#N)ccc31)CSc1ccccc1-2`, which Activity is on record?
**A.** inactive

**Q.** Which Activity does the source give for `Cn1c2c(c3ccccc31)CSc1ccccc1-2` here?
**A.** inactive

Each compound was assayed against T1, Androgen receptor (Rattus norvegicus) (assay: Inhibition of rat AR-mediated reporter gene expression in COS7 cells at 3 uM). Settings: COS-7.
Type: cell-based

**Q.** For `Cn1c2c(c3cc(O)ccc31)CCC1=CC(=O)CCC12C` (configuration not stated), which inhibition is on record?
**A.** 42%

**Q.** `Cn1c2c(c3ccc(O)cc31)CCc1ncccc1-2` was tested. Which inhibition did it give?
**A.** 29%

**Q.** How did the inhibition turn out when `Cn1c2c(c3cc(O)ccc31)CCc1nccnc1-2` was run?
**A.** 33%

The compounds below were run against T2, Androgen receptor (Rattus norvegicus, UniProt P15207) (assay: not given). Settings: not given.
T2 sequence (P15207 whole entry): T1 sequence (whole entry)

**Q.** How did the IC50 turn out when `Cn1c2c(c3cc(O)ccc31)CSc1cc(F)ccc1-2` was run?
**A.** 630 nM

**Q.** Which IC50 does the source give for `Cn1c2c(c3cc(Cl)ccc31)CSc1ccccc1-2` here?
**A.** 1500 nM

**Q.** For `CC(=O)Oc1ccc2c(c1)c1c(n2C)-c2ccccc2SC1`, which IC50 is on record?
**A.** 880 nM

**Q.** With `COc1ccc2c(c1)SCc1c-2n(C)c2ccc(O)cc12` as the compound, how does the IC50 read?
**A.** 3000 nM

**Q.** With `Cn1ccc2c1CCc1c-2n(C)c2ccc(O)cc12` as the compound, how does the IC50 read?
**A.** 370 nM

**Q.** Which IC50 does the source give for `Cn1c2c(c3ccc(O)cc31)CSc1ccccc1-2` here?
**A.** 130 nM

**Q.** `Cn1c2c(c3ccc(O)cc31)CCc1ccccc1-2` was tested. Which IC50 did it give?
**A.** 30 nM

**Q.** For `Cn1c2c(c3ccc(O)cc31)CCCc1ccccc1-2`, which IC50 is on record?
**A.** 920 nM

**Q.** `Cn1c2c(c3cc(O)ccc31)CSc1ccc(F)cc1-2` was tested. Which IC50 did it give?
**A.** 110 nM

**Q.** With `Cn1c2c(c3cc(O)ccc31)CSc1ccccc1-2` as the compound, how does the IC50 read?
**A.** 110 nM

**Q.** `Cn1c2c(c3cc(O)ccc31)CCc1ncccc1-2` was tested. Which IC50 did it give?
**A.** 29 nM

**Q.** With `Cn1c2c(c3cc(F)ccc31)CSc1ccccc1-2` as the compound, how does the IC50 read?
**A.** 3700 nM

**Q.** For `Cn1c2c(c3cc(O)ccc31)CSc1ncccc1-2`, which IC50 is on record?
**A.** 52 nM

**Q.** How did the IC50 turn out when `Oc1ccc2[nH]c3c(c2c1)CSc1ccccc1-3` was run?
**A.** 4500 nM

**Q.** For `Cn1c2c(c3cc(O)ccc31)CSc1cc(Br)ccc1-2`, which IC50 is on record?
**A.** 2800 nM

**Q.** `Cn1c2c(c3cc(O)ccc31)CCc1sccc1-2` was tested. Which IC50 did it give?
**A.** 580 nM

**Q.** For `CCn1c2c(c3cc(O)ccc31)CSc1ccccc1-2`, which IC50 is on record?
**A.** 2300 nM

**Q.** `Cn1c2c(c3ccc(O)cc31)CCSc1ccccc1-2` was tested. Which IC50 did it give?
**A.** 5000 nM

**Q.** `Cn1c2c(c3cc(F)ccc31)CSc1cc(C(F)(F)F)ccc1-2` was tested. Which IC50 did it give?
**A.** 2800 nM

**Q.** `Cn1c2c(c3cc(O)ccc31)CSc1cc(O)ccc1-2` was tested. Which IC50 did it give?
**A.** 2100 nM

**Q.** For `CC(=O)n1c2c(c3cc(O)ccc31)CSc1ccccc1-2`, which IC50 is on record?
**A.** 1000 nM

**Q.** How did the IC50 turn out when `Cn1c2c(c3ccc(O)cc31)C(C)(C)Sc1cc(O)ccc1-2` was run?
**A.** 3400 nM

**Q.** `Cn1c2c(c3cc(O)ccc31)CCc1cnccc1-2` was tested. Which IC50 did it give?
**A.** 930 nM

**Q.** With `Cn1c2c(c3cccc(O)c31)CSc1cc(F)ccc1-2` as the compound, how does the IC50 read?
**A.** 3800 nM
